Experimental data: patent publication US7803619B2, “Embryoid body-based screen” (Geneprotech, Inc., priority 2004, dated 2010)

Columns and labels:
[1] = tested on: EB from ES cell line (ES-6) containing necdin-puromycin-IRES-β-galactosidase cassette; assay: Embryoid body neurogenesis screen: necdin promoter-driven β-galactosidase expression; format: cell-based, mouse; details: 48 h exposure
Procedure: A brief description of the procedure follows. A tagged ES cell line containing a stably integrated necdin-puromycin-IRES-β-galactosidase cassette was allowed to form EBs. One thousand cells in 200 μl media without LIF were plated in a 96-well PCR plate. On the third day, the EBs were transferred to a 96-well tissue culture plate coated with laminin. The medium was changed on the fourth day and appropriate small molecule compounds were added with each compound being assessed in triplicate. Six wells received no treatment and six wells received treatment with vehicle control (DMSO or ethanol diluted in similar manner as small molecule compounds). The cells were incubated with compounds for 48 hours, compounds removed by washing with PBS and cells allowed to grow and differentiate in media for 4 days. Cells were lysed on the fifth day and the lysates were analyzed for β-galactosidase expression. […] Two positive controls, 50 ng/ml nerve growth factor (NGF) and 1 uM retinoic acid (RA) (Sigma Chemical, St. Louis) and small molecule compounds (piperine, curcumin, rosmarinic acid, U0126, LY294002) were used for screening. Fold increase was calculated based on the respective vehicle control […] activity. […] This is not surprising since NGF is a stronger neurogenic growth factor than is RA. […]
An ES cell line (ES-6; Preliminary Studies Section C.2.) containing a stably integrated necdin-puromycin-IRES-β-galactosidase cassette was allowed to form EB. […] The medium was changed on the fourth day and appropriate small molecule compounds were added with each compound being assessed in triplicate. […] Cells were lysed on the fifth day and the lysates were analyzed for β-galactosidase expression. […] Fold increase was calculated based on the respective vehicle control β-galactosidase activity. […]
After addition of puromycin to the media, neuronal cells are the anticipated survivors and other cell types are expected to be eliminated. Since activity of the necdin promoter confers β-galactosidase expression, a quantitative measurement of β-galactosidase activity is performed. […]

[2] = tested on: endothelial cell culture system; details: cited from earlier work
chorioallantoic membrane = details: cited from earlier work
EB = details: cited from earlier work
murine ES cells = details: cited from earlier work
[3] = tested on: myeloid leukemia HL60 cells; details: cited from earlier work

In the case of `CC1=C(/C=C/C(C)=C/C=C/C(C)=C/C(=O)O)C(C)(C)CCC1` [RA, retinoic acid], the “Fold increase in neurogenesis (β-galactosidase activity relative to respective vehicle control)” value ([1]; positive control, 1 uM) is reported as 11 fold.

For `O=C(/C=C/C=C/c1ccc2c(c1)OCO2)N1CCCCC1` [piperine], the “Fold increase in neurogenesis (β-galactosidase activity relative to respective vehicle control)” value ([1]; small molecule compound at 10 μM, lysed on fifth day after removal) was 3.3 fold.

In the case of `O=C1CCC(N2C(=O)c3ccccc3C2=O)C(=O)N1` (centres unmarked) [thalidomide], the Anti-angiogenic effect [2] is given as “no anti-angiogenic effect”, the Anti-angiogenic effect (chorioallantoic membrane) is given as “no anti-angiogenic effect” and the Anti-angiogenic effect (EB) is given as “had anti-angiogenic effect”.

In the case of `O=C1O[C@H]([C@@H](O)CO)C(O)=C1O` [vitamin C, ascorbic acid], the “Number of cardiac myocytes showing rhythmic contractile activity, positive for sarcomeric myosin and alpha-actinin” value (murine ES cells) is given as “markedly increased”.

In the case of boswellic acid acetate, the “Differentiation into monocyte-like cells” value [3] is given as “induces differentiation”.

In the case of nerve growth factor [NGF], the “Fold increase in neurogenesis (β-galactosidase activity relative to respective vehicle control)” value ([1]; positive control, 50 ng/ml) is reported as 30 fold.
